In US5118811A, “Amino acid derivatives possessing prolyl endopeptidase-inhibitory activities” (Japan Tobacco Inc., priority 1989, dated 1992):

What was measured:
prolyl endopeptidase = biological target: T1, prolyl endopeptidase (Rattus norvegicus, UniProt O70196); test: Prolyl Endopeptidase-Inhibitory Activity; format: biochemical; settings: for inhibition at 1 µM: 1 × 10^-6 M, read-out: Inhibition rate, prolyl endopeptidase; for IC50: prolyl endopeptidase extracted from rat brain, pH 7.0, 30° C., preincubated 30 minutes, 1 hour
T1 construct: prolyl endopeptidase extracted from rat brain; from tissue; host or cells: rat brain
T1 sequence (O70196 whole entry): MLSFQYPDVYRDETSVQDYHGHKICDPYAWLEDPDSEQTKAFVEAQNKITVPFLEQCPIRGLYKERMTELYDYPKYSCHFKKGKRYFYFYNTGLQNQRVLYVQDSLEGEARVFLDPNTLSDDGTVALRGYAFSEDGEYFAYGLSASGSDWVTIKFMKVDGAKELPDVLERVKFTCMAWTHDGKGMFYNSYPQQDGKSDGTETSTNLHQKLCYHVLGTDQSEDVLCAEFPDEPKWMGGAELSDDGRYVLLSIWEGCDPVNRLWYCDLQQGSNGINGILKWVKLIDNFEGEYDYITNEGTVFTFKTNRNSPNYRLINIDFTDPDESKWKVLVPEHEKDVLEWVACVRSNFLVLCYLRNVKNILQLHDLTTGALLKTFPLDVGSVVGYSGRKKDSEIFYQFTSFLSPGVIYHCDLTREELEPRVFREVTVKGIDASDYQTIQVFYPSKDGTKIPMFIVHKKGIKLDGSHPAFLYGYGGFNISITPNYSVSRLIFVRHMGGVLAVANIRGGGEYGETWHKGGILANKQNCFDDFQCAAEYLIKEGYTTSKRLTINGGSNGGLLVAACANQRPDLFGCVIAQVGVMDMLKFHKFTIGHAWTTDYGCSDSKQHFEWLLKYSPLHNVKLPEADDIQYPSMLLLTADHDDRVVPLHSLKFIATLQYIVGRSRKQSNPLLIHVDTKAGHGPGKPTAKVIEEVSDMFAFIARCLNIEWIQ
Experimental: A mixture of a 0.1M potassium sodium phosphate buffer (pH 7.0) (2675 μl), a solution of the compounds of the present invention in a 0.1M potassium sodium phosphate buffer (pH 7.0) (100 μl) and a solution of prolyl endopeptidase extracted from rat brain in a 25 mM sodium phosphate buffer (100 μl) [123 unit/1, pH 6.8, containing 1 mM dithiothreitol and 0.5 mM EDTA, prepared by the method described in J. Neurochem., 35, 527 (1980)] was preincubated at 30° C. for 30 minutes. Thereto was added a 0.2 mM solution of 7-(N-succinyl-glycyl-prolyl)-4-methylcoumarinamide (Peptide Institute, INC.) in a 0.1M potassium sodium phosphate buffer (pH 7.0) (125 μl), and the mixture was incubated at 30° C. for 1 hour. The reaction mixture was immersed in ice (0° C.) to terminate the reaction, and the fluorescence (a1) was determined ten minutes later (excitation at 370 nm and emission at 440 nm). Concurrently, there were conducted the experiment wherein, in the above system, the prolyl endopeptidase solution was substituted for a 25 mM sodium phosphate buffer (pH 6.8, containing 1 mM dithiothreitol and 0.5 mM EDTA) and the experiment wherein the solution of the compounds of the present invention was also substituted for a 0.1M potassium sodium phosphate buffer (pH 7.0). Each fluorescence (a2 and a3) was also determined respectively [See Tanpakushitsu Kakusan Koso, 29, 127 (1984)]. The prolyl endopeptidase-inhibition rate was calculated by the following formula, and IC50, a concentration of a compound producing 50% inhibition, was estimated by semilogarithmic graph paper. [formula]

chymotrypsin = biological target: T2, chymotrypsin (Bos taurus, UniProt P00766); test: Chymotrypsin-Inhibitory Activity; format: biochemical, bovine; settings: 1 × 10^-6 M; read-out: Inhibition rate, chymotrypsin
T2 construct: purchased Sigma; host or cells: bovine pancreas
Experimental: (§1) Similarly, by following the procedure mentioned above, but employing a 50 mM Tris-HCl buffer (pH 8.0) as a buffer for measurement, a 0.2 μM solution of chymotrypsin (derived from bovine pancrease, Sigma) in the same buffer as an enzyme solution and a 200 μM solution of 7-(N-succinyl-leucyl-leucyl-valyl-tyrosyl)-4-methylcoumarinamide (Peptide Institute, Inc.) in the same buffer as a substrate solution. Each fluorescence (c1, c2 and c3) was also determined, respectively.
(§2) Using the fluorescence x1, x2 and x3 measured in the above-mentioned manner, the inhibitory rate against various proteases was calculated by the following formula where x stands for b, c, d, e or f: [formula]

leucine aminopeptidase = test: Leucine Aminopeptidase-Inhibitory Activity; format: biochemical, swine; settings: 1 × 10^-6 M
Experimental: as §1, with “leucine aminopeptidase” for “chymotrypsin”, “swine kidney,” for “bovine pancrease,”, “7-(leucyl-4-methylcoumarinamide” for “7-(N-succinyl-leucyl-leucyl-valyl-tyrosyl)-4-methylcoumarinamide”, “(d1, d2” for “(c1, c2”, “d3)” for “c3)”
as §2

trypsin = biological target: T3, trypsin (Bos taurus, UniProt P00760); test: Trypsin-Inhibitory Activity; format: biochemical, bovine; settings: 1 × 10^-6 M; read-out: Inhibition rate, trypsin
T3 construct: purchased Sigma; host or cells: bovine pancreas
T3 sequence (P00760 24-246): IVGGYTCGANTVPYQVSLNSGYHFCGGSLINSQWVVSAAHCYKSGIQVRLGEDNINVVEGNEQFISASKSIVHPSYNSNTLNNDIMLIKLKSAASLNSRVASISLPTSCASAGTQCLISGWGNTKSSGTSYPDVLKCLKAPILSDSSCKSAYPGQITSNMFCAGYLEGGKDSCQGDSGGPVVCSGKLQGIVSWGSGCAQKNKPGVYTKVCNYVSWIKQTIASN
Experimental: In the present invention, a 50 mM Tris-HCl buffer (pH 8.0) was employed as a buffer for measurement.
To a mixture of the above-mentioned buffer (850 μl), a solution of the compounds of the present invention in the same buffer (50 μl) and a 0.02 μM solution of trypsin (derived from bovine pancreas, Sigma) in the same buffer (50 μl) was added a 200 μM solution of 7-(prolyl-phenylaranyl-arginyl)-4-methylcoumarinamide (Peptide Institute, Inc.) in the same buffer (50 μl), and the mixture was incubated at 30° C. for 1 hour. The reaction mixture was immersed in ice (0° C.) to terminate the reaction, and the fluorescence (b1) was determined 1 hour later (excitation at 370 nm and emission at 440 nm). Concurrently, there were conducted the experiment wherein, in the system above, the trypsin solution was substituted for a buffer alone, and the experiment wherein the solution of the compounds of the present invention was also substituted for a buffer above. Each fluorescence (b2 and b3) was also determined respectively.
as §2

cathepsin B = biological target: T4, cathepsin B (Bos taurus, UniProt P07688); test: Cathepsin B-Inhibitory Activity; format: biochemical, bovine; settings: 1 × 10^-6 M; read-out: Inhibition rate, cathepsin B
T4 construct: purchased Sigma; host or cells: bovine spleen
Experimental: Similarly, by following the procedure mentioned above, but employing a 100 mM sodium phosphate buffer (pH 6.0; containing 1.33 mM EDTA Na2) as a buffer for measurement, a 0.02 μM solution of cathepsin B (derived from bovine spleen, Sigma) in the same buffer as an enzyme solution and a 200 μM solution of 7-(N-benzyloxycarbonyl-phenylaranyl-arginyl)-4-methylcoumarinamide (Peptide Institute, Inc.) in the same buffer as a substrate solution. Each fluorescence (f1, f2 and f3) was also determined, respectively.
as §2

elastase = biological target: T5, elastase (Sus scrofa, UniProt P00772); test: Elastase-Inhibitory Activity; format: biochemical, swine; settings: 1 × 10^-6 M; read-out: Inhibition rate, elastase
T5 construct: purchased Sigma; host or cells: swine pancreas
T5 sequence (P00772 27-266): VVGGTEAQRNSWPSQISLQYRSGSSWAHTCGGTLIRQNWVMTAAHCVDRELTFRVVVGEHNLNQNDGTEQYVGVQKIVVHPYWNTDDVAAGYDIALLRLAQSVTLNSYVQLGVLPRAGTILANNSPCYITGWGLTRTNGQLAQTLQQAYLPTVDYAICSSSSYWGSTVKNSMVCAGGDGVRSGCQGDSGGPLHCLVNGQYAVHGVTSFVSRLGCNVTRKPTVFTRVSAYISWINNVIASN
Experimental: Similarly, by following the procedure mentioned above, but employing a 1 mM Tris-HCl buffer (pH 8.5) as a buffer for measurement, a 0.2 μM solution of elastase (derived from swine pancreas, Sigma) in the same buffer as an enzyme solution and a 200 μM solution of 7-(N-succinyl-aranyl-prolyl-aranyl)-4-methylcoumarinamide (Peptide Institute, Inc.) in the same buffer as a substrate solution. Each fluorescence (e1, e2 and e3) was also determined, respectively.
as §2

Row | Compound | inhibition at 1 µM (prolyl endopeptidase) [%] | IC50 (prolyl endopeptidase) [nM] | inhibition at 1 µM (chymotrypsin) [%] | Inhibition rate, leucine aminopeptidase (leucine aminopeptidase) [%] | inhibition at 1 µM (trypsin) [%] | inhibition at 1 µM (cathepsin B) [%] | inhibition at 1 µM (elastase) [%]
1 | CC(=O)ON=C[C@@H]1CCCN1C(=O)CCC(=O)NCc1ccc(Cl)cc1 [Compound 21, (2S)-1-[4-Oxo-4-(4-chlorobenzylamino)butanoyl]-2-pyrrolidinecarboxaldehyde O-acetyloxime] | 100 | 40 | 0 | 0 | 10 | 0 | 0
2 | N#C[C@@H]1CCCN1C(=O)CCC(=O)NCc1ccc(Cl)cc1 [Compound 22, (2S)-1-[4-Oxo-4-(4-chlorobenzylamino)butanoyl]-2-cyanopyrrolidine] | 100 | 10 | 0 | 0 | 0 | 0 | 0
